# Laboratory results from ChEMBL document CHEMBL5576041, “13-oxyingenol dodecanoate derivatives induce mitophagy and ferroptosis through targeting TMBIM6 as potential anti-NSCLC agents” (Eur J Med Chem, 2024).
# Calls of active or inactive are those of the source. No cut-off for these calls is given here.
# What was measured:
# [1] = system: HepG2; assay: Antiproliferative activity against human HepG2 cells assessed as inhibition of cell growth incubated for 24 to 72 hrs by CCK8 assay; assay type: functional, cell-based
# [2] = system: A549; assay: Induction of ferroptosis in human A549 cells assessed as increase in […] accumulation; assay type: functional, cell-based
# [3] = system: NCI-H460; assay: Antiproliferative activity against human NCI-H460 cells assessed as inhibition of cell growth incubated for 24 to 72 hrs by CCK8 assay; assay type: functional, cell-based
# [4] = system: A549; assay: Increase in Ca2+ level in human A549 cell cytoplasm at 5 to 20 uM incubated for 8 hrs by confocal photographic analysis; assay type: functional, cell-based; conditions: dose 5-20 µM
# [5] = system: A549; assay: Induction of autophagy in human A549 cells assessed as effect on LC3II protein expression at 10 to 20 uM incubated for 24 hrs by Western blot analysis; assay type: functional, cell-based; conditions: dose 10-20 µM
# [6] = biological target: Bax inhibitor 1 (Homo sapiens) (UniProt P55061); assay: Thermal stabilization of TMBIM6 in human A549 cells at 46 to 60 degreeC at 100 uM incubated for 2 hrs by CETSA based Western blot analysis; assay type: cell-based
# Sequence of Bax inhibitor 1 (Homo sapiens) (P55061 whole entry): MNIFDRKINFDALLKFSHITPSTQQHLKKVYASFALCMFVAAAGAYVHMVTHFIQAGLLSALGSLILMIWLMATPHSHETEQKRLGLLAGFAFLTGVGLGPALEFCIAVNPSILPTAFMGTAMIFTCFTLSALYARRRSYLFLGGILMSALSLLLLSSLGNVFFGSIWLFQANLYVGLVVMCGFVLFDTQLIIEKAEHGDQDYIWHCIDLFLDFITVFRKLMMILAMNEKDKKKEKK
# [7] = biological target: Non-selective voltage-gated ion channel VDAC1 (Homo sapiens) (UniProt P21796); assay: Activation of VDAC1 channel in human A549 cells assessed as increase in mitochondrial Ca2+ endocytosis by staining based analysis; assay type: cell-based; conditions: filed as opener
# Sequence of Non-selective voltage-gated ion channel VDAC1 (Homo sapiens) (P21796 whole entry): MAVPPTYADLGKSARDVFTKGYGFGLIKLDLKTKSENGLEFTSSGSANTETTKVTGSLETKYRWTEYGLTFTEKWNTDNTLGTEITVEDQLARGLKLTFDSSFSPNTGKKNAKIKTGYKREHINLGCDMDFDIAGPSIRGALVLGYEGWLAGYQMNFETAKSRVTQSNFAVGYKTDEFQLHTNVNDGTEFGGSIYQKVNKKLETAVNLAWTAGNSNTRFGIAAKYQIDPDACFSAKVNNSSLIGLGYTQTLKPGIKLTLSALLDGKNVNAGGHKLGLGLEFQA
# [8] = system: A549; assay: Induction of TMBIM6-VDAC1 protein-protein interaction in human A549 cells at 20 uM by immunoprecipitation analysis; assay type: cell-based; conditions: filed as activator
# [9] = system: A549; assay: Induction of ferroptosis in human A549 cells assessed as reduction in GSH content incubated for 2 to 12 hrs; assay type: functional, cell-based; conditions: time 2-12 hrs
# [10] = system: A549; assay: Induction of ferroptosis in human A549 cells assessed as increase in malondialdehyde content; assay type: functional, cell-based
# [11] = biological target: Bax inhibitor 1 (Homo sapiens) (UniProt P55061); assay: Thermal stabilization of TMBIM6 in human A549 cells at 54 to 60 degreeC at 100 uM incubated for 2 hrs by CETSA based Western blot analysis; assay type: cell-based
# [12] = system: A549; assay: Downregulation of TMBIM6 protein expression in human A549 cells at 10 uM by Western blot analysis; assay type: functional, cell-based
# [13] = system: Cell membrane; assay: Induction of mitochondrial membrane potential loss in human A549 cells at 10 to 20 uM incubated for 6 hrs by JC-1 staining based flow cytometric analysis; assay type: cell membranes; conditions: dose 10-20 µM
# [14] = system: A549; assay: Activation of Nrf2-Keap1-HO-1 signaling pathway in human A549 cells assessed as increase in oxidative stress by measuring lipid ROS level at 10 to 20 uM by Western blot analysis; assay type: cell-based; conditions: filed as activator, dose 10-20 µM
# [15] = system: A549; assay: Induction of autophagy in human A549 cells assessed as effect on PINK1 protein expression at 10 to 20 uM incubated for 24 hrs by Western blot analysis; assay type: functional, cell-based; conditions: dose 10-20 µM
# [16] = system: A549; assay: Antiproliferative activity against human A549 cells assessed as inhibition of cell growth incubated for 24 to 72 hrs by CCK8 assay; assay type: functional, cell-based
# [17] = system: Cell membrane; assay: Induction of mitochondrial membrane depolarization in human A549 cells assessed as increases in mitochondrial Ca2+ concentration by Rhod-2 AM probe based flow cytometric analysis; assay type: cell membranes
# [18] = biological target: T1, Cystine/glutamate transporter (Homo sapiens) (UniProt Q9UPY5); assay: Inhibition of SLC7A11 in human […] cells at 10 to 20 uM by Western blot analysis; assay type: cell-based; conditions: A549, dose 10-20 µM
# T1 sequence (whole entry): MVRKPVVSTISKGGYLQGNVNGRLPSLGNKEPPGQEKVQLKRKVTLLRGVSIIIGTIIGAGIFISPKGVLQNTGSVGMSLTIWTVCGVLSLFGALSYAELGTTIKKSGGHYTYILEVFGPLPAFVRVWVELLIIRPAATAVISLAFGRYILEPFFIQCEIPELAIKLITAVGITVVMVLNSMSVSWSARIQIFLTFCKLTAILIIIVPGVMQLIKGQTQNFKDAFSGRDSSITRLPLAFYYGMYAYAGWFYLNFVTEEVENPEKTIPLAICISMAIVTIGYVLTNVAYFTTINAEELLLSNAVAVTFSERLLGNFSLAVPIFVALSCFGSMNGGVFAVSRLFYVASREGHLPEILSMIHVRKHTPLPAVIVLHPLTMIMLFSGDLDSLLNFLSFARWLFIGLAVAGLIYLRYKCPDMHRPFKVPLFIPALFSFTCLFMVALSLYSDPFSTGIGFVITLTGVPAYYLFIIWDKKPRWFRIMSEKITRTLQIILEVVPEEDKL
# [19] = system: Cell membrane; assay: Induction of mitochondrial membrane depolarization in human A549 cells assessed as increases in mitochondrial Ca2+ concentration incubated for 8 hrs by Rhod-2 AM probe based flow cytometric analysis; assay type: cell membranes
# [20] = Selectivity index, ratio of IC50 for cytotoxicity against human BEAS-2B cells to IC50 for antiproliferative activity against human A549 cells; assay type: toxicity, cell-based; conditions: read-out: Ratio IC50
# [21] = system: A549; assay: Activation of Nrf2-Keap1-HO-1 signaling pathway in human A549 cells assessed as increase in oxidative stress by measuring lipid ROS level at 5 to 20 uM by Western blot analysis; assay type: cell-based; conditions: filed as activator, dose 5-20 µM
# [22] = system: A549; assay: Induction of autophagy in human A549 cells assessed as effect on PINK1 protein expression upto 20 uM incubated for 24 hrs by Western blot analysis; assay type: functional, cell-based
# [23] = system: A549; assay: Induction of lipid ROS accumulation in human A549 cells at 20 uM incubated for 24 hrs in presence of Fer-1 by DCFH/C11-BODIPY probe based flow cytometric analysis; assay type: functional, cell-based
# [24] = system: A549; assay: Induction of ROS accumulation in human A549 cells at 20 uM by DCFH/C11-BODIPY probe based flow cytometric analysis; assay type: functional, cell-based; conditions: time 2-24 hrs, TDE = time-dependent effect
# [25] = system: A549; assay: Antiproliferative activity against human A549 cells assessed as inhibition of cell growth incubated for 48 hrs by CCK8 assay; assay type: functional, cell-based; conditions: A549, 48 h
# [26] = system: A549; assay: Stabilization of […] in human A549 cells assessed as reduction in polyubiquitination at 20 uM in presence of MG132 by immunoprecipitation analysis; assay type: cell-based
# [27] = system: A549; assay: Induction of ferroptosis in human A549 cells assessed as increase in malondialdehyde content at 5 to 20 uM; assay type: functional, cell-based; conditions: dose 5-20 µM
# [28] = system: A549; assay: Induction of lipid ROS accumulation in human A549 cells at 20 uM incubated for 24 hrs in presence of Lip-1 by DCFH/C11-BODIPY probe based flow cytometric analysis; assay type: functional, cell-based
# [29] = biological target: T1, Cystine/glutamate transporter (Homo sapiens); assay: Inhibition of SLC7A11 in human […] cells at 5 to 20 uM by Western blot analysis; assay type: cell-based; conditions: A549, dose 5-20 µM
# [30] = system: A549; assay: Induction of autophagy in human A549 cells incubated for 12 hrs by MDC staining based flow cytometric analysis; assay type: functional, cell-based
# [31] = system: A549; assay: Induction of lipid ROS accumulation in human A549 cells at 20 uM incubated for 24 hrs in presence of NAC by DCFH/C11-BODIPY probe based flow cytometric analysis; assay type: functional, cell-based
# [32] = biological target: Bax inhibitor 1 (Homo sapiens) (UniProt P55061); assay: Binding affinity to TMBIM6 in human A549 cells by cluster analysis; assay type: cell-based
# [33] = system: A549; assay: Antiproliferative activity against human A549 cells assessed as inhibition of cell growth incubated for 24 hrs by CCK8 assay; assay type: functional, cell-based; conditions: A549, 24 h
# [34] = system: A549; assay: Induction of ROS accumulation in human A549 cells incubated for 24 hrs by DCFH/C11-BODIPY probe based flow cytometric analysis; assay type: functional, cell-based; conditions: dose 5-20 µM
# [35] = system: A549; assay: Induction of autophagy in human A549 cells assessed as effect on LC3II protein expression upto 20 uM incubated for 24 hrs by Western blot analysis; assay type: functional, cell-based
# [36] = system: A549; assay: Induction of lipid ROS accumulation in human A549 cells at 20 uM incubated for 24 hrs in presence of DFO by DCFH/C11-BODIPY probe based flow cytometric analysis; assay type: functional, cell-based
# [37] = biological target: Bax inhibitor 1 (Homo sapiens) (UniProt P55061); assay: Competitive binding affinity to TMBIM6 in human A549 cells in presence of 2 to 6 fold of 13-oxyingenol dodecanoate by immunofluorescence analysis; assay type: cell-based
# [38] = biological target: Bax inhibitor 1 (Homo sapiens) (UniProt P55061); assay: Binding affinity to TMBIM6 at Met-68 residue in human A549 cells by high-resolution mass spectrometric analysis; assay type: cell-based
# [39] = biological target: Bax inhibitor 1 (Homo sapiens) (UniProt P55061); assay: Competitive binding affinity to TMBIM6 in human A549 cells assessed as reduction in 13-oxyingenol dodecanoate binding to protein at 4 uM in presence of 6 fold 13-oxyingenol dodecanoate by pull down Western blot analysis; assay type: cell-based
# [40] = biological target: Bax inhibitor 1 (Homo sapiens) (UniProt P55061); assay: Binding affinity to TMBIM6 in human A549 cells assessed as increase in co-localization in cytoplasm at 4 uM by immunofluorescence analysis; assay type: cell-based
# [41] = biological target: Bax inhibitor 1 (Homo sapiens) (UniProt P55061); assay: Binding affinity to TMBIM6 in human A549 cells at 4 uM by pull down Western blot analysis; assay type: cell-based
smiles,measurement,setting,value
CCCCCCCCCCCC(=O)O[C@@]12C[C@@H](C)[C@]34C=C(C)[C@H](OC(=O)c5ccc(F)cc5)[C@@]3(O)[C@H](O)C(CO)=C[C@H](C4=O)[C@@H]1C2(C)C,IC50,[1],21.1 µM
same,Activity,[2],Active
same,IC50,[3],20.8 µM
same,Activity,[4],Active
same,Activity,[5],Active
same,Activity,[6],Active
same,Activity,[7],Active
same,Activity,[8],Active
same,Activity,[9],Active
same,Activity,[10],Active
same,Activity,[11],Active
same,Activity,[12],Active
same,Activity,[13],Active
same,Activity,[14],Active
same,Activity,[15],Active
same,IC50,[16],2.6 µM
same,Activity,[17],Active
same,inhibition,[18],Active
same,Activity,[19],Active
same,selectivity ratio,[20],19.8
CCCCCCCCCCCC(=O)O[C@@]12C[C@@H](C)[C@]34C=C(C)[C@H](OC(=O)NCCC)[C@@]3(O)[C@H](O)C(CO)=C[C@H](C4=O)[C@@H]1C2(C)C,IC50,[1],21.4 µM
same,Activity,[2],Active
same,IC50,[3],8.5 µM
same,Activity,[4],Active
same,Activity,[5],Active
same,Activity,[6],Active
same,Activity,[7],Active
same,Activity,[8],Active
same,Activity,[9],Active
same,Activity,[10],Active
same,Activity,[11],Active
same,Activity,[12],Active
same,Activity,[13],Active
same,Activity,[14],Active
same,Activity,[15],Active
same,IC50,[16],4.7 µM
same,Activity,[17],Active
same,inhibition,[18],Active
same,Activity,[19],Active
same,selectivity ratio,[20],10.6
CCCCCCCCCCCC(=O)O[C@@]12C[C@@H](C)[C@]34C=C(C)[C@H](O)[C@@]3(O)[C@H](O)C(CO)=C[C@H](C4=O)[C@@H]1C2(C)C,IC50,[1],5.3 µM
same,Activity,[21],Active
same,Activity,[22],Active
same,Activity,[2],Active
same,IC50,[3],7 µM
same,Activity,[4],Active
same,Activity,[23],inactive
same,Activity,[24],Tde
same,IC50,[25],17.5 µM
same,Activity,[26],Active
same,Activity,[27],Active
same,Activity,[6],Active
same,Activity,[7],Active
same,Activity,[8],Active
same,Activity,[9],Active
same,Activity,[28],inactive
same,inhibition,[29],Active
same,Activity,[30],Dose-Dependent Effect
same,Activity,[31],inactive
same,Activity,[32],Active
same,Activity,[11],Active
same,Activity,[12],Active
same,IC50,[33],8.67 µM
same,Activity,[34],Dose-Dependent Effect
same,IC50,[16],3.9 µM
same,Activity,[17],Active
same,Activity,[19],Active
same,Activity,[35],Active
same,selectivity ratio,[20],11.1
same,Activity,[36],inactive
C#CCCC1(CCNC(=O)O[C@H]2C(C)=C[C@]34C(=O)[C@@H](C=C(CO)[C@@H](O)[C@]23O)[C@@H]2C(C)(C)[C@]2(OC(=O)CCCCCCCCCCC)C[C@H]4C)N=N1,Activity,[37],Active
same,Activity,[38],Active
same,Activity,[39],Active
same,IC50,[25],13.8 µM
same,Activity,[40],Active
same,IC50,[33],8.1 µM
same,Activity,[41],Active
CCCCCCCCCCCC(=O)O[C@@]12C[C@@H](C)[C@]34C=C(C)[C@H](OC(=O)c5ccc([N+](=O)[O-])cc5)[C@@]3(O)[C@H](O)C(COC(=O)c3ccc([N+](=O)[O-])cc3)=C[C@H](C4=O)[C@@H]1C2(C)C,IC50,[1],> 50 µM
same,Activity,[2],Active
same,IC50,[3],1 µM
same,Activity,[4],Active
same,Activity,[5],Active
same,Activity,[6],Active
same,Activity,[7],Active
same,Activity,[8],Active
same,Activity,[9],Active
same,Activity,[10],Active
same,Activity,[11],Active
same,Activity,[12],Active
same,Activity,[13],Active
same,Activity,[14],Active
same,Activity,[15],Active
same,IC50,[16],6.1 µM
same,Activity,[17],Active
same,inhibition,[18],Active
same,Activity,[19],Active
same,selectivity ratio,[20],8.2
